This assay addresses T1, human TLR7 (Homo sapiens, UniProt Q9NYK1).
T1 sequence (Q9NYK1 27-1049): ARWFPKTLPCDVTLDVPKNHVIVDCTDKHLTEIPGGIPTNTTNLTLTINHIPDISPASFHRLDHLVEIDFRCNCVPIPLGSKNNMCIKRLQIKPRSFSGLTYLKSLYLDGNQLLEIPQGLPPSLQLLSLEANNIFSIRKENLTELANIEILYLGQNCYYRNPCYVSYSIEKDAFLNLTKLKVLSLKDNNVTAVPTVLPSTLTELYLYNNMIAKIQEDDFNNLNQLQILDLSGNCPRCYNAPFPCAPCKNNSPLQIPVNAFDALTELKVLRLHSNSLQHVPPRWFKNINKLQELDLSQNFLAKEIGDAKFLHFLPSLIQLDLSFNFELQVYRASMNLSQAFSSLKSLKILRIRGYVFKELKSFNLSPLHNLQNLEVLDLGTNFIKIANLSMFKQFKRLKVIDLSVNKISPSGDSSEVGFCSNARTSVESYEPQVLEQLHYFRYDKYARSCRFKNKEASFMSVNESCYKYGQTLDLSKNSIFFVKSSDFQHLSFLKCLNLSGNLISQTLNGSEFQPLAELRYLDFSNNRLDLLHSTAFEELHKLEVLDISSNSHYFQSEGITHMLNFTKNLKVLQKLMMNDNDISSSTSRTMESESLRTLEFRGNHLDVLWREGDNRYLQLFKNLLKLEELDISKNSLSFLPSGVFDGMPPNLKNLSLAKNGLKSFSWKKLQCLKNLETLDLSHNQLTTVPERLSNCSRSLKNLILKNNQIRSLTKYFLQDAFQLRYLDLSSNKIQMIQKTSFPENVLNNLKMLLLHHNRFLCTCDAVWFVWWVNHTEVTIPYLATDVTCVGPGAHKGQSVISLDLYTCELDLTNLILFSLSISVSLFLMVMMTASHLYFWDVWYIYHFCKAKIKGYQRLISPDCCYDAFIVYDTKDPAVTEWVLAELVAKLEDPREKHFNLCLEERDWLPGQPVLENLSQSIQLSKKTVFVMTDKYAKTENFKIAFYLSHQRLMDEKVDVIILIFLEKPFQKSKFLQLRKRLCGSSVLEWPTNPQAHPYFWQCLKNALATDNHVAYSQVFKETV
In words: HEK293-Blue-hTLR-7 cells assay (SEAP reporter). The class given is cell-based. As to conditions: for EC50: HEK293-Blue-hTLR-7 cells, SEAP reporter, 20 hrs; for Ratio (EC50(prodrug)/EC50(active form)): EC50 of prodrug over EC50 of corresponding active form. The source says:
HEK293-Blue-hTLR-7 Cells Assay:
A stable HEK293-Blue-hTLR-7 cell line was purchased from InvivoGen (Cat.#: hkb-htlr7, San Diego, Calif., USA). These cells were designed for studying the stimulation of human TLR7 by monitoring the activation of NF-κB. A SEAP (secreted embryonic alkaline phosphatase) reporter gene was placed under the control of the IFN-β minimal promoter fused to five NF-κB and AP-1-binding sites. The SEAP was induced by activating NF-κB and AP-1 via stimulating HEK-Blue hTLR7 cells with TLR7 ligands. Therefore the reporter expression was regulated by the NF-κB promoter upon stimulation of human TLR7 for 20 hrs. The cell culture supernatant SEAP reporter activity was determined using QUANTI-Blue™ kit (Cat.#: rep-qbl, Invivogen, San Diego, Calif., USA) at a wavelength of 640 nm, a detection medium that turns purple or blue in the presence of alkaline phosphatase.
HEK293-Blue-hTLR7 cells were incubated at a density of 250,000˜450,000 cells/mL in a volume of 180 μL in a 96-well plate in Dulbecco's Modified Eagle's medium (DMEM) containing 4.5 g/L glucose, 50 U/mL penicillin, […], […], 2 mM L-glutamine, 10% (V/V) heat-inactivated fetal bovine serum for 24 hrs. Then the HEK293-Blue-hTLR-7 cells were incubated with addition of 20 μL test compound in a serial dilution in the presence of final DMSO at 1% and perform incubation under 37° C. in a CO2 incubator for 20 hrs. Then 20 μL of the supernatant from each well was incubated with 180 μL Quanti-blue substrate solution at 37° C. for 2 hrs and the absorbance was read at 620˜655 nm using a spectrophotometer. The signalling pathway that TLR7 activation leads to downstream NF-κB activation has been widely accepted, and therefore similar reporter assay was also widely used for evaluating TLR7 agonist (Tsuneyasu Kaisho and Takashi Tanaka, Trends in Immunology, Volume 29, Issue 7, July 2008, […]; Hiroaki Hemmi et al, Nature Immunology 3, 196-200 (2002)).
The Compounds and Examples of the present invention were tested in HEK293-hTLR-7 assay for their TLR7 agonism activity as described herein and results are listed in Table 1. […] The calculated ratio of EC50(prodrug)/EC50(active form) were within the range from 32 to about 7600.

The mark [1] stands for this setting: active form, read-out: HEK293-hTLR-7 EC50 (Active form).
The mark [2] stands for this setting: prodrug, read-out: HEK293-hTLR-7 EC50 (Prodrug).

Read-outs that look alike come from different tables or passages of the source.

With `CCCS(=N)(=O)c1nc(N)c2[nH]c(=O)n(Cc3ccccc3)c2n1` (single isomer, unassigned) [Compound 1e-B], the EC50 under setting [1] is 0.086 µM. As for `CCC[S@](=N)(=O)c1nc(N)c2[nH]c(=O)n(Cc3ccc(Cl)cc3)c2n1` (single isomer, unassigned) [Compound 34e-A], under setting [1], the EC50 stood at 0.014 µM. Same read-out and setting: next, `CCC[S@](=N)(=O)c1nc(N)c2[nH]c(=O)n(Cc3ccc(Cl)cc3)c2n1` (single isomer, unassigned) [Compound 34e-B]: 0.011 µM.

Consider `CCCS(=N)(=O)c1nc(N)c2[nH]c(=O)n(Cc3ccc(C)cc3)c2n1` (single isomer, unassigned) [Compound 36g-A], for which, under setting [1], the EC50 came out at 0.019 µM. Same read-out and setting: next, `CCCS(=N)(=O)c1nc(N)c2[nH]c(=O)n(Cc3ccc(C)cc3)c2n1` (single isomer, unassigned) [Compound 36g-B]: 0.022 µM. Consider `CCC[S@](=N)(=O)c1nc(N)c2c(n1)n(Cc1ccc(C)cc1)c(=O)n2C(=O)N1CCCC1` (stereo in doubt) [Example 37-B, 6-amino-2-[S(R)-propylsulfonimidoyl]-9-(p-tolylmethyl)-7-(pyrrolidine-1-carbonyl)purin-8-one], for which the “Ratio (EC50(prodrug)/EC50(active form))” value came to 2154.5. For the same molecule, the EC50 under setting [2] came out at 47.4 µM. In the same order, the values of `CCC[S@](=N)(=O)c1nc(N)c2c(n1)n(Cc1ccc(C)cc1)c(=O)n2C(=O)N(C)CCOC` (stereo in doubt) [Example 38-B, 6-amino-N-(2-methoxyethyl)-N-methyl-8-oxo-2-[S(R)-propylsulfonimidoyl]-9-(p-tolylmethyl)purine-7-carboxamide] are 886.4 and 19.5 µM. In the same order, the values of `CCN(C)C(=O)n1c(=O)n(Cc2ccc(C)cc2)c2nc([S@@](=N)(=O)CC)nc(N)c21` (stereo in doubt) [Example 44-B, 6-Amino-N-ethyl-2-[S(R)-ethylsulfonimidoyl]-N-methyl-8-oxo-9-(p-tolylmethyl)purine-7-carboxamide] are 879.1 and 96.7 µM. Turning to `CCCS(=N)(=O)c1nc(N)c2[nH]c(=O)n(Cc3ccccc3)c2n1` (stereo not shown) [Compound 1e, 6-amino-9-benzyl-2-(propylsulfonimidoyl)-7H-purin-8-one], under setting [1], the EC50 was 0.065 µM. The same measure, in the same setting: next, `CCS(=N)(=O)c1nc(N)c2[nH]c(=O)n(Cc3ccc(Cl)cc3)c2n1` (stereo not shown) [Compound 41c, 6-amino-9-[(4-chlorophenyl)methyl]-2-(ethylsulfonimidoyl)-7H-purin-8-one]: 0.053 µM. Take `CCCCN(C)C(=O)n1c(=O)n(Cc2ccc(Cl)cc2)c2nc([S@@](=N)(=O)CCC)nc(N)c21` [Example 34-A, 6-Amino-N-butyl-9-[(4-chlorophenyl)methyl]-N-methyl-8-oxo-2-[S(S)-propylsulfonimidoyl]purine-7-carboxamide]: the “Ratio (EC50(prodrug)/EC50(active form))” value turned out to be 428.6. The EC50 under setting [2] amounted to 6 µM. The corresponding values for `CCCCN(C)C(=O)n1c(=O)n(Cc2ccc(Cl)cc2)c2nc([S@@](=N)(=O)CCC)nc(N)c21` [Example 34-B, 6-amino-N-butyl-9-[(4-chlorophenyl)methyl]-N-methyl-8-oxo-2-[S(S)-propylsulfonimidoyl]purine-7-carboxamide] are 578.2 and 6.36 µM. The corresponding values for `CCC[S@](=N)(=O)c1nc(N)c2c(n1)n(Cc1ccc(C)cc1)c(=O)n2C(=O)N1CCCC1` [Example 37-A, 6-Amino-2-[S(S)-propylsulfonimidoyl]-9-(p-tolylmethyl)-7-(pyrrolidine-1-carbonyl)purin-8-one] are 1400 and 26.6 µM.

As for `CCC[S@](=N)(=O)c1nc(N)c2c(n1)n(Cc1ccc(C)cc1)c(=O)n2C(=O)N(C)CCOC` [Example 38-A, 6-Amino-N-(2-methoxyethyl)-N-methyl-8-oxo-2-[S(S)-propylsulfonimidoyl]-(p-tolylmethyl)purine-7-carboxamide], the EC50 under setting [2] was found to be 26.2 µM. For `CCCS(=N)(=O)c1nc(N)c2c(n1)n(Cc1ccc(C)cc1)c(=O)n2C(=O)N(C)CC` (stereo not shown) [Example 39, 6-Amino-N-ethyl-N-methyl-8-oxo-2-(propylsulfonimidoyl)-9-(p-tolylmethyl)purine-7-carboxamide], the “Ratio (EC50(prodrug)/EC50(active form))” value turned out to be 159.3. The EC50 under setting [2] came out at 4.3 µM.

For the molecule `CCCCN(C)C(=O)n1c(=O)n(Cc2ccc(C)cc2)c2nc(S(=N)(=O)CCC)nc(N)c21` (stereo not shown) [Example 40, 6-Amino-N-butyl-N-methyl-8-oxo-2-(propylsulfonimidoyl)-9-(p-tolylmethyl)purine-7-carboxamide], the “Ratio (EC50(prodrug)/EC50(active form))” value worked out at 1955.6. Moreover, the EC50 under setting [2] is 52.8 µM.

As to `CCCN(C)C(=O)n1c(=O)n(Cc2ccc(Cl)cc2)c2nc(S(=N)(=O)CC)nc(N)c21` (stereo not shown) [Example 41], the “Ratio (EC50(prodrug)/EC50(active form))” value is 679.2. In addition, the EC50 under setting [2] was 36 µM. The corresponding values for `CCN(C)C(=O)n1c(=O)n(Cc2ccc(C)cc2)c2nc([S@@](=N)(=O)CC)nc(N)c21` [Example 44-A, 6-Amino-N-ethyl-2[S(S)-ethylsulfonimidoyl]-N-methyl-8-oxo-9-(p-tolylmethyl)purine-7-carboxamide] are 1868.6 and 65.4 µM.

A word on the EC50: it is the midpoint of the concentration-response curve.

The record behind these values is patent publication US10233184B2, “7-substituted sulfonimidoylpurinone compounds and derivatives for the treatment and prophylaxis of virus infection” (Hoffmann-La Roche Inc., priority 2016, dated 2019).
